Here are results for 1 compound from paper PMC10981309, “Dual-targeting tigecycline nanoparticles for treating intracranial infections caused by multidrug-resistant Acinetobacter baumannii” (Journal of Nanobiotechnology, 2024).

Series [1] is described as follows: Histological analysis (H&E) of heart, liver, spleen, lungs and kidneys. Type of series: in vivo, rats. The settings on record: compared to normal control group. The text has this: To further investigate the biosafety of the various formulations in vivo, blood samples were collected post-administration for biochemical analysis. After euthanizing the rats, their heart, liver, spleen, lung, and kidney tissues were harvested. These tissues underwent hematoxylin and eosin (H&E) staining and were subsequently imaged using a pathology slide scanner.

Series [2] can be described thus: Pharmacokinetics after intravenous injection. Type of series: in vivo. The settings on record: female, Sprague-Dawley, rat, rats, i.v. 12.5 mg/kg TGC, plasma. How it is done:
In the pharmacokinetic study, adult female Sprague–Dawley rats, weighing between 200 and 250 g, were used. Prior to the experiment, the animals were fasted overnight with free access to water. […] Each group received an intravenous administration of TGC at a dose of 12.5 mg/kg via the tail vein. Blood samples were collected at predetermined time points (0.25, 0.5, 1, 2, 4, 6, and 8 h), and then placed into 2 mL Eppendorf tubes. These samples were centrifuged at 10,000 rpm for 10 min at 4 °C to separate the plasma. A portion of the plasma was mixed with methanol in a 1:4 volume ratio and further centrifuged at 13,000 rpm for 10 min at 4 °C. The supernatant was collected for TGC concentration determination using HPLC. Pharmacokinetic parameters were subsequently calculated using the statistical analysis tool DAS2.

For a further series, the system named is bEnd.3 cells monolayer. Description: Transmembrane transport assay, in vitro BBB model. Type of series: in vitro ADME. The following applies: bEnd.3 Transwell monolayer, apical to basolateral, TGC by HPLC. The protocol: An in vitro blood–brain barrier (BBB) model using bEnd.3 cells was developed to assess nanoparticle penetration. 2.0 × 10^5 cells were cultured in a Transwell chamber, achieving an intercellular compactness verified at 200 Ω·cm^2 transendothelial electrical resistance. […] Using Hank's Balanced Salt Solution, nanoparticles were added to the apical side and co-incubated. At intervals, 200 μL HBSS was sampled from the basolateral side for TGC concentration analysis via HPLC.

A short description of series [3]: In vitro drug release, dialysis method in PBS pH 7.4. Type of series: physicochemical. The following applies: PBS pH 7.4, 37 °C. How it is done: An in vitro drug release study was conducted employing the dialysis method, with phosphate-buffered saline (PBS, pH = 7.4) as the release medium. For this study, 2 mL aliquots of free Tigecycline (TGC), CSs, or Aβ11/T80@CSs (each containing 1 mg of TGC) were sealed in dialysis bags with a molecular weight cutoff of 3.5 kDa. These bags were then immersed in 30 mL of PBS and gently agitated at 37 °C. At predetermined time intervals, 1.0 mL of PBS was sampled from outside each dialysis bag for HPLC analysis, and an equivalent volume of fresh PBS was replenished to maintain a constant volume in the release medium.

A further series is described as follows: Hemolysis assay. More on the design: species or system rats. The following applies: rat; 2% erythrocyte suspension, 37 °C, three hours, relative to positive control (water); read-out: hemolysis rate. How it is done: The hemolytic activity of Aβ11/T80@CSs was assessed using erythrocytes from healthy rats. Blood samples were collected, and red blood cells were isolated through centrifugation, followed by suspension in normal saline to create a 2% erythrocyte solution. Two milliliters of this erythrocyte suspension were mixed with free TGC, CSs, or Aβ11/T80@CSs and incubated at 37 °C for three hours. Post-incubation, the samples were centrifuged, and the absorbance of the supernatant was measured using spectrophotometry at 570 nm. Purified water and normal saline served as positive and negative controls, respectively. The percentage of hemolysis was calculated using the following formula: Hemolysis%=Asample-Anegative/Apositive-Anegativ×100%

Another series has as its system bEnd.3 cells. Put plainly: Cell cytotoxicity, MTT assay. Type of series: cell-based. The settings on record: 24-h incubation, across a range of TGC concentrations. (Tetrazolium dyes change colour on reduction, which living cells bring about.)
For series [4], the system named is multidrug-resistant A. baumannii. Description: Minimum inhibitory concentration, microbroth dilution. Type of series: cell-based. The following applies: Acinetobacter baumannii; 1 × 10^5 CFU/mL, 24 h, OD 600 nm. The protocol:
Mid-log phase bacteria, diluted to 1 × 10^5 CFU/mL, were mixed with these compounds (0.125–16 μg/mL) and incubated in 96-well plates for 24 h, with bacterial density measured at 600 nm. In a rat model, MDR A. baumannii was injected intracisternally (20 μL, 1 × 10^8 CFU/mL) into the CSF. […] CSF was collected after 24 h and cultured, with colony counts noted after 24 h at 37 °C.
On the technique in general: Broth dilution looks for growth in wells or tubes with falling amounts of substance.

In brackets after ≈: the same amount, converted by molar mass.

The Cmax is the highest concentration seen after dosing. By Tmax is commonly meant the time from dosing to the highest level. As usually defined, the clearance is the volume of plasma or blood freed of the substance per unit of time. Lower therefore signals a low capacity for elimination. What is called half-life is how long it takes for the measured level to halve. Higher therefore signals slow decline. In general, AUC(0-t) refers to the area under the concentration-time curve up to a stated or last time point. Low readings indicate low exposure, high ones high exposure. One may read the MIC as the smallest concentration in the dilution series that meets the test's criterion for growth inhibition. A low value points to greater potency. For the compound `CN(C)c1cc(NC(=O)CNC(C)(C)C)c(O)c2c1C[C@H]1C[C@H]3[C@H](N(C)C)C(O)=C(C(N)=O)C(=O)[C@@]3(O)C(O)=C1C2=O` [Free-TGC, Tigecycline], the “histopathology of heart, liver, spleen, lungs and kidneys” value in series [1] is “no significant pathological alterations”. In series [2], the Cmax worked out at 3700 ± 620 ng/mL, the Tmax was found to be 15 min, the clearance is 20 mL/min/kg and the half-life was 46.2 ± 14.4 min. The AUC(0-t) in series [2] (0-8 h) amounted to 8480 ± 2900 ng·h/mL. For the same compound, in series [2] (read-out: MRT(0-t)), the MRT last was found to be 156 ± 9.6 min. Further, the “permeability / transport capacity across in vitro BBB model” value with bEnd.3 cells monolayer is “lowest permeability”. The “time to complete release” value in series [3] was “within three hours”. In addition, the hemolysis at 3 h in the series “Hemolysis assay” is less than 5%. For the same compound, the cell survival rate entry in the series with bEnd.3 cells was “exceeded 80%”. For the same compound, the MIC in series [4] was 2 µg/mL (≈ 3.41 µM).
